{"source": "ChEMBL document CHEMBL1201862", "about": "“PubChem BioAssay data set” (2004)", "key": {"[1]": {"target": "Long-chain-fatty-acid--AMP ligase FadD28 (Mycobacterium tuberculosis, UniProt P9WQ59)", "sequence (P9WQ59 whole entry)": "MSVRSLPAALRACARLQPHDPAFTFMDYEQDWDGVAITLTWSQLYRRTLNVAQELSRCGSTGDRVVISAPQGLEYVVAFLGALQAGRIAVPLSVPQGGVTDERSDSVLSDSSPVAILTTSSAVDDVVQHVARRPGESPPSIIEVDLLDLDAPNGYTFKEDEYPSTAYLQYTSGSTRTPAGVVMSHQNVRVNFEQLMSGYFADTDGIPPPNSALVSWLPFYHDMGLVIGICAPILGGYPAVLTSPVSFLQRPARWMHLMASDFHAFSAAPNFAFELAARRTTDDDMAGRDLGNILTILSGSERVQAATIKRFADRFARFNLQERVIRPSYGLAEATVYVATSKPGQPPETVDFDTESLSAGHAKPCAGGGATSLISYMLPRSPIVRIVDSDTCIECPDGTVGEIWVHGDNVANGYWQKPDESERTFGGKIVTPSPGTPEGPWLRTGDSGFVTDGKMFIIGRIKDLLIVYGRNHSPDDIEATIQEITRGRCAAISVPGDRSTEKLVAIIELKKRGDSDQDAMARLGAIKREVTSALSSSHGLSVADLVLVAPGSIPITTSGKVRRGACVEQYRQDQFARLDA", "experiment": "Fluorescence polarization aasay to screen for inhibitors that compete for the binding of FadD28 to a bisubstrate Measured in Biochemical System Using Plate Reader - 2147-01_Inhibitor_Dose_CherryPick_Activity.", "format": "functional, Mycobacterium tuberculosis H37Rv"}, "[2]": {"target": "Photoreceptor-specific nuclear receptor (Homo sapiens, UniProt Q9Y5X4)", "sequence (Q9Y5X4 whole entry)": "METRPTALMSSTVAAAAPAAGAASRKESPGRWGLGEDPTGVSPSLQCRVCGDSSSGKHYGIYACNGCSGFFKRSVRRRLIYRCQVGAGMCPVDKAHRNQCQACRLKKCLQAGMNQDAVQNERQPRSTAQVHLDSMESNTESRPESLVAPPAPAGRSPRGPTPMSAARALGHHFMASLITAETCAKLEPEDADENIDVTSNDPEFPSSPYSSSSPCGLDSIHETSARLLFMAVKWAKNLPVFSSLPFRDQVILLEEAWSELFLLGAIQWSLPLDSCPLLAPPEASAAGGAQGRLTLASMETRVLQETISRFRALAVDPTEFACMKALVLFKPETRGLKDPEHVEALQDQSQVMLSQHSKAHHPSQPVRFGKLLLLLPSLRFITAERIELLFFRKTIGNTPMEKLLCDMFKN", "format": "functional, cell-based"}, "[3]": {"target": "T1, Probable nicotinate-nucleotide adenylyltransferase (Staphylococcus aureus (strain N315), UniProt P65502)", "T1 sequence (P65502 whole entry)": "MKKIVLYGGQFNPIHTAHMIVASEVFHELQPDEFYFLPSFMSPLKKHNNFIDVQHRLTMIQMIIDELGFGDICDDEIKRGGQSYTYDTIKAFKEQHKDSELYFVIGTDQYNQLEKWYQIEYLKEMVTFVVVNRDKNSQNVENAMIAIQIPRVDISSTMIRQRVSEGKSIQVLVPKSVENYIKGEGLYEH", "format": "functional, Staphylococcus aureus subsp. aureus N315"}, "[4]": {"target": "T1, Probable nicotinate-nucleotide adenylyltransferase", "format": "functional, Staphylococcus aureus subsp. aureus N315", "conditions": "read-out: IC50_Mean"}, "Cysteine protease ATG4B": {"target": "T2, Cysteine protease ATG4B (Homo sapiens, UniProt Q9Y4P1)", "T2 sequence (Q9Y4P1 whole entry)": "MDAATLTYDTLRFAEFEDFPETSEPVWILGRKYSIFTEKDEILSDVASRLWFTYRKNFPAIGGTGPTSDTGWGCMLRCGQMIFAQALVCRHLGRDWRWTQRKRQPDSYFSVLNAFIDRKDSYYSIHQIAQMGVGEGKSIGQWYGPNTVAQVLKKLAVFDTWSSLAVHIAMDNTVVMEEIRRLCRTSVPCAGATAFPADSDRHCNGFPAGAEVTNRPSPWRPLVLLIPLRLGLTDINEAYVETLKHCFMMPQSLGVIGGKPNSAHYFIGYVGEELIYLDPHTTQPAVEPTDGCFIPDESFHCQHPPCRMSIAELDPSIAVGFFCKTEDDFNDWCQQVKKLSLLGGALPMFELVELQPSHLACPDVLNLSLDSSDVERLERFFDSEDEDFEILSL", "format": "functional"}, "Phospholipase A2": {"target": "Phospholipase A2 (Homo sapiens, UniProt P04054)", "sequence (P04054 whole entry)": "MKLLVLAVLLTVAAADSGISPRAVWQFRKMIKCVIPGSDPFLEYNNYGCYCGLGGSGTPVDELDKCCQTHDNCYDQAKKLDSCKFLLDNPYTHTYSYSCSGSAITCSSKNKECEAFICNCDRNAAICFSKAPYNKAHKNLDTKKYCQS", "format": "functional"}, "[5]": {"experiment": "Counterscreen for […] of the human trace amine associated receptor 1 (TAAR1): Fluorescence-based cell-based high throughput dose response assay to identify nonselective Ga16 agonists.", "format": "functional"}, "[6]": {"experiment": "Counterscreen for antagonists of the human trace amine associated receptor 1 (hTAAR1): Fluorescence-based cell-based high throughput dose response assay to identify nonselective Ga16 antagonists.", "format": "functional"}, "SN12K1": {"tested_on": "SN12K1", "experiment": "cells", "format": "functional", "conditions": "Homo sapiens"}, "P388/ADR": {"tested_on": "P388/ADR", "experiment": "cells", "format": "functional", "conditions": "Mus musculus"}, "[7]": {"experiment": "HepG2 cell cytotoxicity, dose response, cytotoxicity control for Shn3 inhibitor project, CellTiter-Glo, cherry-picked (AID 624134)", "format": "functional, cell-based"}, "[8]": {"target": "Heat shock protein HSP 90-alpha (Homo sapiens, UniProt P07900)", "format": "functional, organism-based"}, "[9]": {"experiment": "control 3'UTR Renilla luciferase suppression, dose response, counter-screen for Shn3 inhibitor project, cell-based, Clone20-Shn3RL, cherry-picked (AID 624133)", "format": "functional"}, "[10]": {"experiment": "Shn3 3'UTR reporter inhibitors, dose response, cell-based, Clone20 osteoblasts, firefly luciferase, cherry-picked (AID 624132)", "format": "functional"}, "P388": {"tested_on": "P388", "experiment": "cells", "format": "functional", "conditions": "Mus musculus"}, "[11]": {"target": "Adenosylmethionine-8-amino-7-oxononanoate aminotransferase (Mycobacterium tuberculosis, UniProt P9WQ81)", "experiment": "Mycobacterium tuberculosis BioA enzyme inhibitor Measured in Biochemical System Using Plate Reader - 2163-02_Inhibitor_Dose_CherryPick_Activity.", "format": "functional, Mycobacterium tuberculosis UT205"}, "[12]": {"target": "T3, Beta-2 adrenergic receptor (Homo sapiens, UniProt P07550)", "T3 sequence (P07550 whole entry)": "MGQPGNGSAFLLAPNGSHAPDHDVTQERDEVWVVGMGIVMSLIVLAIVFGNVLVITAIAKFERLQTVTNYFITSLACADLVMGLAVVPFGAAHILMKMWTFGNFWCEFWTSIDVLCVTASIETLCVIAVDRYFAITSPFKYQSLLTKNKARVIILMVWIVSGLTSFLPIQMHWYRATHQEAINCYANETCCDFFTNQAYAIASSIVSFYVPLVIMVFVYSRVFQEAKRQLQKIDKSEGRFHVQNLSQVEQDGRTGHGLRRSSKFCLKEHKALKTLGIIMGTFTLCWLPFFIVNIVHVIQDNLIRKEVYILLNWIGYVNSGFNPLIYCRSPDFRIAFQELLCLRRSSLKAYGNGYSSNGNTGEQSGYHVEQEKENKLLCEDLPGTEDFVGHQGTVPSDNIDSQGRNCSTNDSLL", "experiment": "beta2AR agonists driving receptor internalization, dose response, cell-based, FAP fluorogen, flow cytometry, cherry pick 1 (AID 588763)", "format": "functional"}, "[13]": {"target": "T3, Beta-2 adrenergic receptor", "experiment": "Dose response for HTS for Beta-2AR agonists via FAP method from Powderset1.", "format": "functional"}, "[14]": {"experiment": "StAR promoter reporter inhibition counter-screen, dose response, counter-screen for LRH-1 inverse agonist project, cell-based, luminescence, luciferase reporter (AID 651969)", "format": "functional"}, "Steroidogenic factor 1": {"target": "Steroidogenic factor 1 (Homo sapiens, UniProt Q13285)", "sequence (Q13285 whole entry)": "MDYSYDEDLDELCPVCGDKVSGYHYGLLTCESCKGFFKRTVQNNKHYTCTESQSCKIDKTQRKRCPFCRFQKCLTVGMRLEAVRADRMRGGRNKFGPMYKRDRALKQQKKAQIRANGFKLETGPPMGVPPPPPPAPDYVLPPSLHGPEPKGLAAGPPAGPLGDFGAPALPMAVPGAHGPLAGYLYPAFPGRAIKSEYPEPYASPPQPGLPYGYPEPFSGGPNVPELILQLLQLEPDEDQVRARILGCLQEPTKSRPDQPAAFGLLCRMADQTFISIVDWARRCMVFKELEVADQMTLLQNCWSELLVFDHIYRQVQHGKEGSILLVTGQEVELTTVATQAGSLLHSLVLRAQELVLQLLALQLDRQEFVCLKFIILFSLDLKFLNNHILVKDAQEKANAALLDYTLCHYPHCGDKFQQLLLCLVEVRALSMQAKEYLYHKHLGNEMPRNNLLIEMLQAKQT", "experiment": "Counterscreen for inverse agonists of the liver receptor homolog-1 (LRH-1; NR5A2): Luminescence-based cell-based high throughput dose response assay to identify inverse agonists of the Steroidogenic Factor 1 Nuclear Receptor (SF1; NR5A1).", "format": "functional"}, "[15]": {"target": "Nuclear receptor subfamily 5 group A member 2 (Homo sapiens, UniProt O00482)", "sequence (O00482 whole entry)": "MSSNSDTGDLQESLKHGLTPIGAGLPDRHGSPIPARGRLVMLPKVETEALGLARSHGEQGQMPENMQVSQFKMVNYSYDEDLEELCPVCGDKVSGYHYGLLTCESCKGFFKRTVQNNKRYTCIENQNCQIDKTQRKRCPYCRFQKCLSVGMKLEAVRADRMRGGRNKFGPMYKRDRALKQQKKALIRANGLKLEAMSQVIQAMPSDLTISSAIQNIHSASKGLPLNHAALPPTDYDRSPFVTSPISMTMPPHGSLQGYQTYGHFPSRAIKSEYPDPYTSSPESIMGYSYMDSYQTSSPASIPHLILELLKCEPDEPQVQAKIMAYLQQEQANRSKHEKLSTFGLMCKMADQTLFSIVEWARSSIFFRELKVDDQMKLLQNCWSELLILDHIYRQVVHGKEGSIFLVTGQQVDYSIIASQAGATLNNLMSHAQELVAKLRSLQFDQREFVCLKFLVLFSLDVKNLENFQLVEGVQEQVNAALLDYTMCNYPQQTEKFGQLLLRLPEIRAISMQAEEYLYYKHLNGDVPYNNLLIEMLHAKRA", "format": "functional, cell-based"}, "SUMO-activating enzyme": {"target": "SUMO-activating enzyme (Homo sapiens, UniProt Q9UBT2)", "sequence (Q9UBE0 whole entry)": "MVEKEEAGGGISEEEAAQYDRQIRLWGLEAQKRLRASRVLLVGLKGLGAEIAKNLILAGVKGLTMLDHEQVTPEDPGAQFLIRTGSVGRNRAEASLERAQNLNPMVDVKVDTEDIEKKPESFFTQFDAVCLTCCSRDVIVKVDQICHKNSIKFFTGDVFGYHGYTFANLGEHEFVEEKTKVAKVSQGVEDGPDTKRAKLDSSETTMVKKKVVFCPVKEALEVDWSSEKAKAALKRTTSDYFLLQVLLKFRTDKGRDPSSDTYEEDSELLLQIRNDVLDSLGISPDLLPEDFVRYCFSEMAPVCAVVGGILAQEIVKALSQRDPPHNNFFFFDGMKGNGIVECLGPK", "sequence (Q9UBT2 whole entry)": "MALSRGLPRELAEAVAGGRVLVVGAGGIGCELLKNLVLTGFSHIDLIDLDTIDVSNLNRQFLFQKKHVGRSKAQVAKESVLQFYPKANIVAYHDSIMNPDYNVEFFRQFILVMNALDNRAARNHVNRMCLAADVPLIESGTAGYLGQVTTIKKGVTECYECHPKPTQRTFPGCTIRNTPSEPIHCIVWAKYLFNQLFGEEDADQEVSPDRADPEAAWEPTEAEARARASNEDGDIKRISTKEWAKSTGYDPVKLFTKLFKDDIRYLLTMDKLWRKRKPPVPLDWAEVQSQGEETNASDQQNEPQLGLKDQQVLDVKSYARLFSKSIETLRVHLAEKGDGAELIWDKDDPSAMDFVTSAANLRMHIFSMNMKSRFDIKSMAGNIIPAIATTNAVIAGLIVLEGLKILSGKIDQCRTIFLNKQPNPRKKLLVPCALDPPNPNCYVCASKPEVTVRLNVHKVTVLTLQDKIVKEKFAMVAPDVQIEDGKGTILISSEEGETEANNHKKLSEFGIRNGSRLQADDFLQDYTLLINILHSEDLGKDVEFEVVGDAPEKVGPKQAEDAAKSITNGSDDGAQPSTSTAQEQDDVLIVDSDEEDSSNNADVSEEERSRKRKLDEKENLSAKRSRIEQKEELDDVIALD", "experiment": "SUMOylation inhibitor hit validation, confirmation, SUMOylation inhibitor project, biochemical, AlphaScreen (AID 2018)", "format": "functional"}, "[16]": {"target": "5-hydroxytryptamine receptor 2A (Mus musculus, UniProt P35363)", "sequence (P35363 whole entry)": "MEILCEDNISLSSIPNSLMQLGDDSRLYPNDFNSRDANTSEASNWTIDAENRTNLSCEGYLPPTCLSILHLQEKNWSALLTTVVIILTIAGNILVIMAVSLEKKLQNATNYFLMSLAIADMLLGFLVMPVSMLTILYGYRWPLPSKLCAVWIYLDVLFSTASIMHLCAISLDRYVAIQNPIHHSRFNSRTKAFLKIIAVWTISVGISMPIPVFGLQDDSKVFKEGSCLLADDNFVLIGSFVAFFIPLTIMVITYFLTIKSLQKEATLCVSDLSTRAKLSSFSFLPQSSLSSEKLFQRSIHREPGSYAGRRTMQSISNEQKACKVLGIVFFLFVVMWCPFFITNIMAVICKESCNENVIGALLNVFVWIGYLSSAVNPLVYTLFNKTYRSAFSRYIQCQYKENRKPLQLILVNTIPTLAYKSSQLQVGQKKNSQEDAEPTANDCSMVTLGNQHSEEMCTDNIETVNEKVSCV", "format": "functional, cell-based"}, "Mu-type opioid receptor": {"target": "Mu-type opioid receptor (Homo sapiens, UniProt P35372)", "sequence (P35372 whole entry)": "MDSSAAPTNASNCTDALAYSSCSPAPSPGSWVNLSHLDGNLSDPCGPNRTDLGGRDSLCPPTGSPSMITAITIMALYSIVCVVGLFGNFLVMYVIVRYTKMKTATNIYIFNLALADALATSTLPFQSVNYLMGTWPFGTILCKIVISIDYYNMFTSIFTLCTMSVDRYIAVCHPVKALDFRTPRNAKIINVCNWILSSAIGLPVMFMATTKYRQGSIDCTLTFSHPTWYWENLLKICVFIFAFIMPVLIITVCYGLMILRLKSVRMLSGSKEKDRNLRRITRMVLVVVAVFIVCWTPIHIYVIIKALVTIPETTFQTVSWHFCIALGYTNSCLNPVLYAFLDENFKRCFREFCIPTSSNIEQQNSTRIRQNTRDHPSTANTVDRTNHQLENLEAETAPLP", "format": "functional, cell-based"}, "[17]": {"experiment": "Luminescence Cell-Based Dose Retest to Confirm Inhibitors of Cancer Stem Cells. [Related pubchem assays (depositor defined):AID2717, AID2721]", "format": "functional", "conditions": "Homo sapiens"}, "[18]": {"experiment": "cytotoxicity in KRAS-transformed pancreatic duct cells, primary screen, cell-based, fluorescence, HTS (AID 431);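 further: cell line used: HPDE-C7K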", "format": "functional", "conditions": "Homo sapiens"}, "[19]": {"target": "T4, Ubiquitin-conjugating enzyme E2 N (Homo sapiens, UniProt P61088)", "T4 sequence (P61088 whole entry)": "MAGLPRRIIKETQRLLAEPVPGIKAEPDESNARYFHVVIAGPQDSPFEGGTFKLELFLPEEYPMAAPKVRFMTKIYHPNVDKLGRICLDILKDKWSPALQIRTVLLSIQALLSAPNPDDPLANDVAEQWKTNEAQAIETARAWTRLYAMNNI", "format": "functional"}}, "note": "Where a name gives a salt, the structure may show the parent alone. Activity calls are given as the source filed them.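 Wherever IC50 Mean is given: confirmatory dose-response retesting of NadD inhibitor hits first found in an ultra-high-throughput screen.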"}
{"smiles": "Cc1nc2ccccc2n1-c1ccccc1", "values": [{"measurement": "AC50", "setting": "[1]", "value": "29.5 µM (active)"}]}
{"smiles": "O=C(Nc1nnc(-c2cccs2)o1)c1cc(-c2ccccc2)nc2ccccc12", "values": [{"measurement": "IC50", "setting": "[2]", "value": "3.67 µM (active)"}, {"measurement": "IC50", "setting": "[3]", "value": "6.58 µM (active)"}, {"measurement": "IC50", "setting": "[4]", "value": "27.6 µM (active)"}]}
{"smiles": "O=C(Nc1ccccc1N1CCN(c2ccccc2)CC1)c1ccccc1", "values": [{"measurement": "IC50", "setting": "Cysteine protease ATG4B", "value": "9.27 µM (active)"}, {"measurement": "IC50", "setting": "Phospholipase A2", "value": "6.48 µM (active)"}]}
{"smiles": "CCOCCOc1cccc(C(=O)NC(c2ccccc2)c2ccccc2)c1", "values": [{"measurement": "EC50", "setting": "[5]", "value": "10.3 µM (inactive)"}, {"measurement": "IC50", "setting": "[6]", "value": "10 µM (inactive)"}]}
{"smiles": "CCCCCCCCOC(=O)c1cc([N+](=O)[O-])c(Sc2[nH]cnc3ncnc2-3)c([N+](=O)[O-])c1", "values": [{"measurement": "GI50", "setting": "SN12K1", "value": "0.912 µM (active)"}, {"measurement": "GI50", "setting": "P388/ADR", "value": "0.152 µM (active)"}, {"measurement": "AC50", "setting": "[7]", "value": "11.5 µM (active)"}, {"measurement": "AC50", "setting": "[8]", "value": "2.18 µM (active)"}, {"measurement": "AC50", "setting": "[9]", "value": "10.6 µM (active)"}, {"measurement": "AC50", "setting": "[10]", "value": "2.81 µM (active)"}, {"measurement": "GI50", "setting": "P388", "value": "0.184 µM (active)"}]}
{"smiles": "CCC(Sc1nc2ccsc2c(=O)n1Cc1ccc(C(=O)O)cc1)C(=O)Nc1cccc(OC)c1", "note": "(centres undefined)", "values": [{"measurement": "AC50", "setting": "[11]", "value": "4.08 µM (active)"}]}
{"smiles": "COc1ccc(CN2CCC(Oc3ccc(C(=O)N4CCCC4)cc3)CC2)c(F)c1", "values": [{"measurement": "EC50", "setting": "[12]", "value": "4.66 µM (active)"}, {"measurement": "EC50", "setting": "[13]", "value": "5.42 µM (active)"}]}
{"smiles": "O=C(COc1ccc2c3c(c(=O)oc2c1)CCCC3)NCCN1CCOCC1", "values": [{"measurement": "IC50", "setting": "[14]", "value": "35.8 µM (inactive)"}, {"measurement": "IC50", "setting": "Steroidogenic factor 1", "value": "17 µM (inactive)"}, {"measurement": "IC50", "setting": "[15]", "value": "35.8 µM (inactive)"}]}
{"smiles": "CCCCCCCC(=O)O[C@H]1[C@H]2[C@@H](CC1(C)C)C(=O)[C@]13O[C@H]1C(=O)[C@]1(CO1)[C@]23C", "values": [{"measurement": "GI50", "setting": "SN12K1", "value": "3.33 µM (inactive)"}, {"measurement": "GI50", "setting": "P388/ADR", "value": "0.1 µM (active)"}, {"measurement": "GI50", "setting": "P388", "value": "0.0904 µM (active)"}]}
{"smiles": "O=C(O)c1ccc(/C=N/NC(=O)c2ccc(CN3c4cccc5cccc(c45)S3(=O)=O)cc2)cc1", "values": [{"measurement": "IC50", "setting": "SUMO-activating enzyme", "value": "10.9 µM (active)"}, {"measurement": "IC50", "setting": "[3]", "value": "5.94 µM (active)"}, {"measurement": "IC50", "setting": "[4]", "value": "27.2 µM (active)"}]}
{"smiles": "CCCN[C@H]1CCc2nc(N)sc2C1", "values": [{"measurement": "EC50", "setting": "[16]", "value": "0.00651 µM (active)"}, {"measurement": "EC50", "setting": "Mu-type opioid receptor", "value": "92.5 µM (inactive)"}]}
{"smiles": "CCCCc1oc2ccccc2c1C(=O)c1cc(I)c(OCCN(CC)CC)c(I)c1", "note": "[AMIODARONE HYDROCHLORIDE]", "values": [{"measurement": "GI50", "setting": "SN12K1", "value": "3.77 µM (inactive)"}, {"measurement": "AC50", "setting": "[17]", "value": "4.87 µM (active)"}, {"measurement": "EC50", "setting": "[18]", "value": "7.82 µM (active)"}, {"measurement": "IC50", "setting": "[19]", "value": "> 20 µM (inactive)"}, {"measurement": "GI50", "setting": "P388", "value": "5.06 µM (inactive)"}]}
